In patent US20240335404A1, “SUBSTITUTED ESTERS CONTAINING POLYOLS AND SACCHARIDES FOR TREATING HEPATOTOXICITY AND FATTY LIVER DISEASES” (SINEW PHARMA INC., priority 2015, published 2024):

Legend:
CYP2E1 = CYP2E1 (Homo sapiens, UniProt P05181); test: CYP2E1 inhibitory activity assay in human liver microsomes (CZX to 6-OH-CZX)
Protocol: After addition of the test sample, the amount of CYP450 isozyme metabolite standard 6-OH-CZX (6-Hydroxy-Chlorzoxazone) is specific used for calculation of the CYP450 isozyme (CYP2E1) inhibition ratio of the test sample by using the amount of 6-OH-CZX of the control group as the baseline.
All samples were tested in triplicate. To determine the percentage inhibition, each test compound was dissolved in 1, 2, 4 μg/mL to three different concentrations. The CYP2E1 activity levels in the presence of the test compounds were compared with the control incubations. The 500-μL reaction mixture, containing 0.5 mg of microsomal protein, was incubated with 320 μM CZX in the presence of 5 mM MgCl2 and 1 mM NADPH in 50 mM phosphate buffer with pH 7.4 at 37° C. for 30 min. The reaction was terminated by ice-cold acetonitrile, and then 4-hydroxyl tolbutamide was added as an internal standard. The organic phase was evaporated to dryness and reconstituted into the mobile phase (methanol:water=1:1) prior to liquid chromatography-tandem mass spectrometry (LC-MS/MS) analysis. An API 3000 triple-quadrupole mass spectrometer equipped with an ion-spray (ESI) source was used to determine 6-OH-CZX in the human liver microsomes. The ESI interface was used in the positive-ion mode. The 6-OH-CZX was monitored at a transition of m/z 284.5→185.9.
The CYP450 isozyme activity levels in the presence of the test compounds were compared with the control incubations.

[1] = Pro-drug hydrolysis in fresh human whole-blood (in vitro); assay type: in vitro ADME; details: 37° C., up to 24 hrs (FIG. 1)
Protocol: Fresh human whole-blood were used for drug hydrolysis studies. Drug (10 mg, compound F) was dissolved in 1 mL solution (20% methanol). Drug hydrolysis (n=3) was performed in 20 mL of fresh whole-blood aliquots containing 1.0 mg of drug in a 50-mL flask thermostat at 37° C. in a shaking water bath. At time 0, the drug was added, and after various times of incubation, the blood samples were collected at […], 0.75, 1, 2, 4, 6, 12 and 24 hrs. Blood sample were used 1 mL acetonitrile to quench the enzymatic hydrolysis of the drug as samples were obtained. […] The ESI interface was used in the negative-ion mode.
The pro-drug was monitored at a transition of m/z 688.9∂→180.9, Sucralose was monitored at a transition of m/z 395→359; mannitol was monitored at a transition of m/z 452.3→273.3; C6-mannitol was monitored at a transition of m/z 309→101.1. All the compounds were identified by high-resolution mass spectrophotometry and ^13C NMR. The structure of C6-mannitol (formula (2)) is as follows: […]
The hydrolysis of pro-drug in blood was expressed by plotting the percentage of Pro-drug remaining and the percentage of sucralose, mannitol and C6-mannitol increasing versus time after incubation of the pro-drug in blood (FIG. 1).

Chain of CYP2E1 (P05181 whole entry): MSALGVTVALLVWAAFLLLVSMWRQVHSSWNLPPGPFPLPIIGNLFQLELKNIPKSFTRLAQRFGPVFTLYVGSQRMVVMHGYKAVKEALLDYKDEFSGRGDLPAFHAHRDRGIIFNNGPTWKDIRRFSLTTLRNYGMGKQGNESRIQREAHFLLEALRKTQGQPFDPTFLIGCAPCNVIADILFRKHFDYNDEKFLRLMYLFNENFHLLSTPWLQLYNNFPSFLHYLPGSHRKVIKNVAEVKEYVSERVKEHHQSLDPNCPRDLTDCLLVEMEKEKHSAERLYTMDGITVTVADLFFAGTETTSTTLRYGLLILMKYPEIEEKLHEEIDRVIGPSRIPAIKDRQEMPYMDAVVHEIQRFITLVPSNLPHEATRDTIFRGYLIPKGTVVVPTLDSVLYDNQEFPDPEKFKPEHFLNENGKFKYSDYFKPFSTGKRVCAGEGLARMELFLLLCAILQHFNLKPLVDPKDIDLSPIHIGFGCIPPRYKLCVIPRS

O=C(CCCCC(=O)OC[C@@H](O)[C@@H](O)[C@H](O)[C@H](O)CO)OCC1O[C@H](O[C@]2(CCl)OC(CCl)C(O)C2O)C(O)C(O)[C@H]1Cl (stereo in doubt) [Compound F, ((2R,3R,4R,5R,6R)-6-(((2R,5R)-2,5-bis(chloromethyl)-3,4-dihydroxytetrahydrofuran-2-yl)oxy)-3-chloro-4,5-dihydroxytetrahydro-2H-pyran-2-yl)methyl ((2R,3R,4R)-2,3,4,5,6-pentahydroxyhexyl) adipate]
P450 2E1 inhibitor activity (CYP2E1): effective as P450 2E1 inhibitors | CYP 2E1 inhibition ratio (%) (CYP2E1; 1 μg/mL): 17.7 ± 0.7% | CYP 2E1 inhibition ratio (%) (CYP2E1; 2 μg/mL): 33.3 ± 4.1% | CYP 2E1 inhibition ratio (%) (CYP2E1; 4 μg/mL): 45.7 ± 2.5% | percentage of pro-drug remaining and metabolites formed in blood [1]: turns into its metabolites including sucralose, mannitol and C6-mannitol
